Assay results reported in ChEMBL document CHEMBL5260832, “Hepatoprotective natural triterpenoids” (Eur J Med Chem, 2018).

How the values were obtained:
[1] = species on record: Mus musculus; assay: Hepatoprotective activity against D-GaIN/LPS induced liver injury mouse model assessed as increase in sALT relative to control; format: functional
[2] = species on record: Mus musculus; assay: Hepatoprotective activity against D-GaIN/LPS induced liver injury mouse model assessed as increase in sAST relative to control; format: functional
[3] = tested on: Hepatocyte; assay: Hepatoprotective activity against D-GaIN/TNFalpha-induced cell death in mouse hepatocyte at 100 uM relative to control; format: functional, cell-based; details: dose 100 µM
[4] = tested on: Hepatocyte; assay: Hepatoprotective activity against D-GaIN/TNFalpha-induced cell death in mouse hepatocyte at 25 uM relative to control; format: functional
[5] = tested on: Mus musculus; assay: Hepatoprotective activity against D-GaIN/LPS induced liver injury mouse model assessed as reduction in sALT at 100 mg/kg, ip relative to control; format: functional; set-up: scale not given: the % may be the effect or the level left
[6] = tested on: Mus musculus; assay: Hepatoprotective activity against D-GaIN/LPS induced liver injury mouse model assessed as reduction in sAST at 100 mg/kg, ip relative to control; format: functional; set-up: scale not given: the % may be the effect or the level left
[7] = tested on: HepG2; assay: Hepatoprotective activity against H2O2-induced cell death in human HepG2 cells assessed as reduction in ALT level at 20 uM preincubated for 1 hr followed by H2O2-stimulation and measured after 24 hrs; format: functional
[8] = tested on: HepG2; assay: Hepatoprotective activity against H2O2-induced cell death in human HepG2 cells assessed as reduction in AST level at 20 uM preincubated for 1 hr followed by H2O2-stimulation and measured after 24 hrs; format: functional
[9] = tested on: L02; assay: Hepatoprotective activity against D-GaIN-induced in human HL7702 cells assessed as cell damage at 10 uM relative to control; format: functional
[10] = Hepatotoxicity in D-GaIN induced Wistar rat assessed as change in GTP leakage level for 10 days relative to control; format: toxicity; details: in vivo, 240 h, time 10 day
[11] = Hepatotoxicity in D-GaIN induced Wistar rat assessed as change in induction of TAT level for 10 days relative to control; format: toxicity; set-up: concentration or dose not given beside the values; details: in vivo, 240 h, time 10 day
[12] = tested on: Mus musculus; assay: Hepatoprotective activity against D-GaIN/CCl4 induced liver injury mouse model assessed as reduction in GPT level at 30 microg/kg, iv relative to control; format: functional; set-up: scale not given: the % may be the effect or the level left; details: dose 30 µg/kg
[13] = Hepatotoxicity in rat hepatocyte assessed as change in GSH level at 30 microg/mL relative to control; format: toxicity, cell-based; details: hepatocytes, at 30 µg/mL
[14] = tested on: HepG2; assay: Hepatoprotective activity against H2O2-induced human HepG2 cells assessed as increase in ALT level; format: functional
[15] = tested on: HepG2; assay: Hepatoprotective activity against H2O2-induced human HepG2 cells assessed as increase in AST level; format: functional
[16] = tested on: L02; assay: Protection against D-GalN-induced toxicity in L02 cells […] assessed as reduction in cell growth relative to control; format: functional, Homo sapiens; set-up: scale not given: the % may be the effect or the level left
[17] = species on record: Mus musculus; assay: Hepatoprotective activity in mouse liver homogenate assessed as inhibition of iron/ascorbate lipid peroxidation at 0.1 mg/mL relative to control; format: functional; set-up: scale not given: the % may be the effect or the level left
[18] = species on record: Mus musculus; assay: Hepatoprotective activity in mouse liver homogenate assessed as inhibition of iron/ascorbate lipid peroxidation at 5.0 mg/mL relative to control; format: functional; set-up: scale not given: the % may be the effect or the level left

CC(C)=CCC[C@](C)(O[C@@H]1O[C@H](CO)[C@@H](O)[C@H](O)[C@H]1O)[C@H]1CC[C@]2(C)[C@@H]1[C@H](O)C[C@@H]1[C@@]3(C)CC[C@H](O)C(C)(C)[C@@H]3[C@@H](O[C@@H]3O[C@H](CO)[C@@H](O)[C@H](O)[C@H]3O)C[C@]12C [GINSENOSIDE RG1]
Activity [1]: 30% | Activity [2]: 12%

CC1(C)CC[C@]2(C(=O)O)CC[C@]3(C)[C@H](C=C[C@@H]4[C@@]5(C)C[C@@H](O)[C@H](O)C(C)(C)[C@@H]5CC[C@]43C)[C@H]2[C@@H]1O
Activity [3]: 32.9% | Activity [4]: 15.4%

CC1(C)CC[C@]2(C(=O)O)CC[C@]3(C)[C@H](C=C[C@@H]4[C@@]5(C)C[C@@H](O)[C@H](O)[C@](C)(CO)[C@@H]5CC[C@]43C)[C@H]2C1
Activity [3]: 108.4% | Activity [4]: 15.4%

CC(C)=CCC[C@](C)(O)C1CC[C@]2(C)[C@@H]1[C@H](O[C@H]1O[C@@H](CO[C@H]3OC[C@H](O)[C@@H](O)[C@@H]3O)[C@H](O)[C@@H](O)[C@@H]1O)C[C@@H]1[C@@]3(C)CC[C@H](O[C@@H]4O[C@H](CO)[C@@H](O)[C@H](O)[C@H]4O[C@@H]4O[C@H](CO)[C@@H](O)[C@H](O)[C@H]4O)C[C@@H]3CC[C@]12C (stereo partly specified)
Activity [5]: 33% | Activity [6]: 40% | Activity [1]: 33% | Activity [2]: 40%

C=C(C)[C@@H]1C[C@H](O)C2=C(C(=O)C[C@]3(C)[C@@H]([C@H](C)CCC(=O)O)CC[C@@]23C)[C@@]1(C)CCC(=O)OC
Activity [7]: 16.06 U/L | Activity [8]: 19.09 U/L

CC(C)=C[C@H]1C[C@@H]([C@@H]2CC[C@]3(C)C4=CC(=O)[C@H]5C(C)(C)[C@H](O)CC[C@]5(C)[C@H]4CC[C@@]23C)C(=O)O1
Activity [9]: 30.4%

CC(C)=CCC[C@H](C(=O)O)[C@@H]1CC[C@]2(C)C3=C(CC[C@@]12C)[C@@]1(C)CC[C@@H](O)C(C)(C)[C@@H]1CC3
Activity [9]: 30.1%

C[C@H]1[C@H](C)CC[C@@]2(C)[C@@H]1C1=CC[C@@H]3[C@@]4(C)CC[C@@H](O)C(C)(C)[C@@H]4CC[C@@]3(C)[C@]1(C)C[C@@H]2O
Activity [10]: 22.7% | Activity [11]: 48%

C=C(C)[C@@H]1C[C@H](O)C2=C(C(=O)C[C@]3(C)[C@@H]([C@H](C)CCC(=O)O)CC[C@@]23C)[C@@]1(C)CCC(=O)O
Activity [7]: 16.06 U/L | Activity [8]: 19.09 U/L

CC(C)=CCC[C@](C)(O)[C@H]1CC[C@]2(C)[C@@H]1[C@H](O)C[C@@H]1[C@@]3(C)CC[C@H](O)C(C)(C)[C@@H]3[C@@H](O[C@@H]3O[C@H](CO)[C@@H](O)[C@H](O)[C@H]3O)C[C@]12C [GINSENOSIDE RH1]
Activity [1]: 93% | Activity [2]: 90% | Activity [12]: 72%

C[C@H]1O[C@@H](O[C@H]2CC[C@@]3(C)[C@@H](CC[C@]4(C)[C@@H]3C(=O)C=C3[C@@H]5CC(C)(C)CC[C@]5(CO)[C@@H](O)C[C@]34C)[C@]2(C)CO)[C@H](O)[C@@H](O[C@@H]2O[C@H](CO)[C@@H](O)[C@H](O)[C@H]2O)[C@H]1O
Activity [13]: 90.9%

COC(=O)C(C)[C@@H](O)C(=O)C[C@@H](C)[C@H]1C[C@H](O)[C@@]2(C)[C@@H]3C(=O)C[C@H]4C(C)(C)[C@@H](O)CC[C@]4(C)[C@H]3C(=O)C[C@]12C (stereo partly specified)
Activity [14]: 18.51 U/L | Activity [15]: 19.5 U/L

CC(C)(O)[C@@H]1CC[C@@H]([C@H]2[C@H](O)C[C@]3(C)[C@@H]2CC[C@@H]2[C@@]4(C)CC[C@H](O[C@@H]5O[C@H](CO)[C@@H](O)[C@H](O)[C@H]5O[C@@H]5O[C@H](CO)[C@@H](O)[C@H](O)[C@H]5O)C(C)(C)[C@@H]4CC[C@]23C)O1
Activity [16]: 69.5%

C/C(=C\CC[C@@H](C)[C@H]1CC[C@@]2(C)C3=CC[C@H]4C(C)(C)[C@@H](O)CC[C@]4(C)C3=CC[C@]12C)CO [GANODEROL B]
Activity [14]: 18.97 U/L | Activity [15]: 26.42 U/L

C=C(C)[C@@H]1CC[C@]2(C(=O)O)CC[C@]3(C)[C@H](CC[C@@H]4[C@@]5(C)C[C@@H](O)[C@H](O)C(C)(C)[C@@H]5CC[C@]43C)[C@@H]12
Activity [17]: 13.7%

CC(C)=CCC[C@](C)(O)C1CC[C@]2(C)[C@@H]1[C@H](O[C@H]1O[C@@H](CO[C@@H]3O[C@@H](CO)[C@H](O)[C@H]3O)[C@H](O)[C@@H](O)[C@@H]1O)C[C@@H]1[C@@]3(C)CC[C@H](O[C@@H]4O[C@H](CO)[C@@H](O)[C@H](O)[C@H]4O[C@@H]4O[C@H](CO)[C@@H](O)[C@H](O)[C@H]4O)C[C@@H]3CC[C@]12C (stereo partly specified)
Activity [5]: 33% | Activity [6]: 40% | Activity [1]: 89% | Activity [2]: 87%

CC1(C)CC[C@]2(C(=O)O)CC[C@]3(C)C(=CC[C@@H]4[C@@]5(C)C[C@@H](O)[C@@H](O)C(C)(C)[C@@H]5CC[C@]43C)[C@@H]2C1
Activity [18]: 52.7% | Activity [17]: 16.8%

CC(C)=CC[C@@H](O)[C@@H](C)[C@H]1CC[C@@]2(C)C3=CC[C@H]4C(C)(C)[C@@H](O)CC[C@]4(C)C3=CC[C@]12C
Activity [7]: 23.22 U/L | Activity [8]: 32.36 U/L

CC1(C)CC[C@]2(C(=O)O)CC[C@]3(C)[C@H](C=C[C@@H]4[C@@]5(C)C[C@@H](O)[C@H](O)C(C)(C)[C@@H]5[C@H](O)C[C@]43C)[C@H]2[C@@H]1O
Activity [3]: 24.4% | Activity [4]: 15.4%

C[C@H]1O[C@@H](O[C@H]2CC[C@@]3(C)[C@@H](CC[C@]4(C)[C@@H]3[C@H](O)C=C3[C@@H]5CC(C)(C)CC[C@]5(CO)[C@@H](O)C[C@]34C)[C@]2(C)CO)[C@H](O)[C@@H](O[C@@H]2O[C@H](CO)[C@@H](O)[C@H](O)[C@H]2O)[C@H]1O
Activity [13]: 46.5%

CC(C)=CCC[C@](C)(O)C1CC[C@]2(C)[C@@H]1[C@H](O[C@H]1O[C@@H](CO[C@H]3O[C@@H](CO)[C@H](O)[C@@H](O)[C@@H]3O)[C@H](O)[C@@H](O)[C@@H]1O)C[C@@H]1[C@@]3(C)CC[C@H](O[C@@H]4O[C@H](CO)[C@@H](O)[C@H](O)[C@H]4O[C@@H]4O[C@H](CO)[C@@H](O)[C@H](O)[C@H]4O)C[C@@H]3CC[C@]12C (stereo partly specified)
Activity [5]: 33% | Activity [6]: 40%

C[C@H]1[C@H](C)CC[C@@]2(C)[C@@H]1C1=CC[C@@H]3[C@@]4(C)CC[C@H](O)C(C)(C)[C@@H]4CC[C@@]3(C)[C@]1(C)C[C@@H]2O
Activity [10]: 46.7% | Activity [11]: 39.8%

CC(C)=CCC[C@H](C(=O)O)[C@@H]1CC[C@]2(C)C3=C(CC[C@@]12C)[C@@]1(C)CC[C@H](O)C(C)(C)[C@@H]1CC3
Activity [9]: 50.5%

CC(=O)[C@H]1CC(=O)[C@@]2(C)C3=C(C(=O)C[C@]12C)[C@@]1(C)CC[C@H](O)C(C)(C)[C@@H]1C[C@@H]3O [LUCIDONE A]
Activity [14]: 17.46 U/L | Activity [15]: 21.18 U/L

CC(C)[C@]1(CO)CC[C@@H]([C@H]2[C@H](O)C[C@]3(C)[C@@H]2CC[C@@H]2[C@@]4(C)CC[C@H](O[C@@H]5O[C@H](CO)[C@@H](O)[C@H](O)[C@H]5O[C@@H]5O[C@H](CO)[C@@H](O)[C@H](O)[C@H]5O)C(C)(C)[C@@H]4CC[C@]23C)O1
Activity [16]: 22.2%

CC(C)=CCC[C@H](C(=O)O)[C@@H]1CC[C@]2(C)C3=C(CC[C@@]12C)[C@@]1(C)CCC(=O)C(C)(C)[C@@H]1CC3=O
Activity [9]: 25.6%

C[C@H]1O[C@@H](O[C@H]2CC[C@@]3(C)[C@@H](CC[C@]4(C)[C@@H]3[C@H](O)C[C@@H]3C5=CC(C)(C)CC[C@]5(CO)[C@@H](O)C[C@]34C)[C@]2(C)CO)[C@H](O)[C@@H](O[C@@H]2O[C@H](CO)[C@@H](O)[C@H](O)[C@H]2O)[C@H]1O
Activity [13]: 64.7%

C=C(C)[C@@H]1C[C@H](O)C2=C(C(=O)C[C@]3(C)[C@@H]([C@H](C)CCC(=O)OC)CC[C@@]23C)[C@@]1(C)CCC(=O)OC
Activity [7]: 16.06 U/L | Activity [8]: 19.09 U/L
